Phytotoxicity data for three molecules are collected here from patent US9023850B2, “Nematocidal sulfonamides” (E I du Pont de Nemours and Company, priority 2010, dated 2015).

Molecules are shown by their SMILES.

The data set concerns cucumber seedlings. The data set is described as follows: Test A: phytotoxicity to the cucumber seedlings of the test units. Particulars: 250 ppm active ingredient applied to soil, 7 days. The class given is in vivo. On the procedure: Control of the southern root-knot nematode (Meloidogyne incognita) through contact and/or systemic means was evaluated in test units consisting of small open containers filled with a sandy soil mixture and cucumber seedlings. Test compounds were formulated using a solution containing 50% acetone and 50% water. Test compounds were applied directly to the soil of the test units at a concentration of 250 ppm active ingredient. Each test was replicated 3 times. After treatment, the test units were allowed to dry for 1 hour, after which time about 250 second-stage juvenile (J2) larvae were pipetted into the soil. The test units were held at 27° C. and watered as needed for 7 days. Nematocidal efficacy was determined by the amount of root gall formation observed when compared to an untreated control. No gall formation was indicative of 100% nematode control. Gall formation equivalent to that found in the untreated control was indicative of 0% control. No nematode control rating was given to compounds showing significant phytotoxicity.
As to `COc1ccc(Cl)c(S(=O)(=O)NC(=O)c2cn3cc(C(F)(F)F)ncc3n2)c1` [Compound 1, N-[(2-chloro-5-methoxyphenyl)sulfonyl]-6-(trifluoromethyl)imidazo[1,2-a]pyrazine-2-carboxamide], the phytotoxicity result is listed as “no significant phytotoxicity”.

As to `O=C(NS(=O)(=O)c1cc(C(F)(F)F)ccc1Cl)c1cn2cc(Br)cnc2n1` [Compound 4, 6-bromo-N-[[2-chloro-5-(trifluoromethyl)phenyl]sulfonyl]imidazo[1,2-a]pyrimidine-2-carboxamide], the phytotoxicity entry is “no significant phytotoxicity”.

As to `O=C(NS(=O)(=O)c1cc(C(F)(F)F)ccc1Cl)c1cn2cc(C(F)(F)F)cnc2n1` [Compound 6, N-[[2-chloro-5-(trifluoromethyl)phenyl]sulfonyl]-6-(trifluoromethyl)imidazo[1,2-a]pyrimidine-2-carboxamide], the phytotoxicity result is listed as “no significant phytotoxicity”.
